Data from patent US20060094676A1, “Compositions and methods for treating cancer using compositions comprising an inhibitor of endothelin receptor activity” (priority 2004, published 2006).

Columns and labels:
[1] = tested on: Me 190/DA (Cut-met) melanoma cells; experiment: MTS assay of cell viability after BQ788; format: cell-based, human; conditions: incubation with BQ788 for seven days
Experimental: (§1) Cells were cultured on a matrigel matrix that was histologically examined after two weeks (A-F). While the primary melanoma cells remained on top of the gel only (A and B), a fraction of the Cut-met cells invaded the gel (C and D) and the LN-met cells invaded the matrix extensively (E and F). Cell lysates of the three lines were subjected to western blot analysis using an anti-ETRB Ab (G) and an anti-tubulin Ab (H). Untreated, control (vehicle treated), and BQ788 treated cells were subjected to MTS assay to quantify any reduction in cell number. The mean values were calculated and plotted (I) as the percentage of the vehicle treated value+/− SEM.
(§2) Human melanoma cell lines Me191-1/GG (Primary), Me 190/DA (Cut-met), Me 275/EP (LN-met) were obtained from the Ludwig Institute (Epalinges, Switzerland) and SK-MEL-28 was obtained from the American Tissue Culture Collection (ATCC). […] After removal of the inserts, MTS solution was added to the well to quantify the cells that migrated through the insert and were attached to the bottom of the well by measuring the OD at 492 nm (Promega). […]
(§3) To address the relationship between the level of progression of human melanoma and responsiveness to BQ788 treatment, 3 cell lines that had been grown in culture for a restricted number of passages were used. […] This effect was quantified using the MTS assay.

[2] = tested on: Me 275/EP (LN-met) melanoma cells; experiment: MTS assay of cell viability after BQ788; format: cell-based, human; conditions: incubation with BQ788 for seven days; LN-met line
Experimental: as §1, §2, §3

[3] = tested on: BCL-2A1; experiment: Real-time RT-PCR of BCL-2A1 transcripts; format: cell-based, human; conditions: BQ788 3 days
Experimental: (§4) Equal amounts of RNA from cells that were treated with BQ788 for 3 days were subjected to real-time RT-PCR analysis for the detection of BCL-2A1 (A) and ADP ribosyltransferase 3 (B) transcripts. Total amounts are represented in A while relative (to control) values are shown in B. Differences in expression levels are shown as x fold decrease and are statistically significant (p<0.05) unless a column in marked as non significant (N.S.). Lysates of BQ788 treated cells and controls were subjected to an apoptosis ELISA detection test (C). SK-MEL-28 cells were cultured with pan caspase inhibitor (D) or with caspase 6 inhibitor (E) with or without BQ788 for 2.5 days. […] SK-MEL-28 cells were cultured for 3 days in the presence of BQ788 and assayed for caspase 6 activity (F). The difference between the columns is statistically significant (p<0.05).
RNA was prepared from the different cell lines in different culture conditions using SV total RNA isolation kit (Promega) according to the manufacturer's protocol. For each sample RNA concentration was determined using the total RNA nano procedure of an Agilent bioanalyzer. A stock of SK-MEL-28 RNA aliquots was prepared containing 10, 20, 50, 100, 200, 500 and 1000 ng/12 μl for use as a standard curve and kept in −80° C. For the experimental unknown samples, a stock of 100 ng/12 μl RNA aliquots from each cell line and condition was prepared and stored at −80° C. For each real-time experiment one series of standard curve and unknown experimental series of aliquots was put on ice for use. Complementary DNA was prepared by adding to each tube 0.5 μl of random hexamers (Promega) and 1 μl of 10 mM dNTP mix (Promega) and incubating at 65° C. for 5 min. 4 μl of 5× M-MLV buffer (Promega), 1 μl of the RNase inhibitor RNasin (Promega) and 1 μl of M-MLV RT RNase H (Promega) were then added and the solution was incubated at 42° C. for 50 min followed by 15 min at 70° C. For real time reactions 15 μl of each cDNA sample were transferred to 3 wells in a 386 well plate. To each well we added 10 μl of TaqMan universal PCR master mix (Applied Biosystems), 1 μl of primers+probe mix (Assays-on-Demand from Applied Biosystems: EDNRB Hs00240747, BCL-2A1 Hs00187845, PARP-3 Hs00154151, VEGF Hs00173626, HIF-1α Hs00153153 and Gravin Hs00374507) and 4 μl of nuclease free water (Promega). […] A standard curve of Ct versus RNA quantity was established and accordingly the Ct in the unknown samples was correlated to quantity of transcript.
If the observed reduction in BCL-2A1 and PARP-3 expression is implicated in ETRB blockade-dependent cell death, one would expect the more resistant cell lines to display less reduction in BCL-2A1 and PARP-3 levels. To test this possibility and to validate our microarray results, we used quantitative real-time PCR.

[4] = tested on: PARP-3; experiment: Real-time RT-PCR of PARP-3 transcripts; format: cell-based, human; conditions: primary melanoma cells; BQ788 treatment
Experimental: as §4
RNA was prepared from the different cell lines in different culture conditions using SV total RNA isolation kit (Promega) according to the manufacturer's protocol. For each sample RNA concentration was determined using the total RNA nano procedure of an Agilent bioanalyzer. […] A standard curve of Ct versus RNA quantity was established and accordingly the Ct in the unknown samples was correlated to quantity of transcript. […]

[5] = tested on: tumors derived from a human melanoma cell line grown in nude mice; conditions: cited from earlier work

With `CCCC[C@@H](NC(=O)[C@@H](Cc1cn(C(=O)OC)c2ccccc12)NC(=O)[C@H](CC(C)(C)C)NC(=O)N1[C@H](C)CCC[C@@H]1C)C(=O)O` [BQ788, N-cis-2,6-dimethylpiperidinocarbonyl-L-γ-methylleucyl-D-1-methoxycarbonyltrptophanyl-D-norleucine] the reduction of viability [1] was 45%, the reduction of viability [2] was 96% and the “decrease in BCL-2A1 levels” value ([3]; Cut-met line) was 1.8 fold. For the same molecule, the “decrease in BCL-2A1 levels” value ([3]; LN-met) was 2.9 fold, the “decrease in BCL-2A1 levels” value ([3]; SK-MEL-28) was 5.7 fold and the BCL-2A1 expression change ([3]; primary melanoma cells) was “did not change”. The PARP-3 levels [4] was “did not show a decrease”, the tumor growth ([5]; human melanoma tumors in nude mice injected with BQ788) was “inhibition of growth” and the tumor size ([5]; tumors treated systemically, nude mice) was “shrinkage of tumors”.
